Here are results for 19 compounds from ChEMBL document CHEMBL4699517 (Bioorg Med Chem Lett, 2020).

Active and inactive are the calls of the source. The rule behind the calls is not given here.

Common to all, as to assay type: cell-based
Test [1] has as its target Phosphatidylinositol 4,5-bisphosphate 3-kinase catalytic subunit gamma isoform (Homo sapiens) (UniProt P48736). The test can be described thus: Inhibition of PI3Kgamma in human SUDHL-6 cells assessed as inhibition of cell viability at 100 nM after 72 hrs by CellTiter-Glo luminescent assay. The following applies: SU-DHL-6.
Test [2] shares this target. The test can be described thus: Inhibition of PI3Kgamma in human SUDHL-10 cells assessed as inhibition of cell viability at 100 nM after 72 hrs by CellTiter-Glo luminescent assay. The note with it: SU-DHL-10.
Test [3] shares this target. Kind of test: Inhibition of PI3Kgamma in human Raji cells assessed as inhibition of cell viability at 100 nM after 72 hrs by CellTiter-Glo luminescence assay.
Test [4] shares this target. Kind of test: Inhibition of PI3Kgamma in human MOLT-4 cells assessed as inhibition of cell viability at 100 nM after 72 hrs by CellTiter-Glo luminescent assay.
The target is the same in test [5]. The test can be described thus: Inhibition of PI3Kgamma in human RPMI-8226 cells assessed as inhibition of cell viability at 100 nM after 72 hrs by CellTiter-Glo luminescent assay.
Test [6] shares this target. Kind of test: Inhibition of PI3Kgamma in human LCL-1 cells assessed as inhibition of cell viability at 100 nM after 72 hrs by CellTiter-Glo luminescent assay.

Phosphatidylinositol 4,5-bisphosphate 3-kinase catalytic subunit gamma isoform (Homo sapiens), sequence (P48736 whole entry, looked up, canonical isoform): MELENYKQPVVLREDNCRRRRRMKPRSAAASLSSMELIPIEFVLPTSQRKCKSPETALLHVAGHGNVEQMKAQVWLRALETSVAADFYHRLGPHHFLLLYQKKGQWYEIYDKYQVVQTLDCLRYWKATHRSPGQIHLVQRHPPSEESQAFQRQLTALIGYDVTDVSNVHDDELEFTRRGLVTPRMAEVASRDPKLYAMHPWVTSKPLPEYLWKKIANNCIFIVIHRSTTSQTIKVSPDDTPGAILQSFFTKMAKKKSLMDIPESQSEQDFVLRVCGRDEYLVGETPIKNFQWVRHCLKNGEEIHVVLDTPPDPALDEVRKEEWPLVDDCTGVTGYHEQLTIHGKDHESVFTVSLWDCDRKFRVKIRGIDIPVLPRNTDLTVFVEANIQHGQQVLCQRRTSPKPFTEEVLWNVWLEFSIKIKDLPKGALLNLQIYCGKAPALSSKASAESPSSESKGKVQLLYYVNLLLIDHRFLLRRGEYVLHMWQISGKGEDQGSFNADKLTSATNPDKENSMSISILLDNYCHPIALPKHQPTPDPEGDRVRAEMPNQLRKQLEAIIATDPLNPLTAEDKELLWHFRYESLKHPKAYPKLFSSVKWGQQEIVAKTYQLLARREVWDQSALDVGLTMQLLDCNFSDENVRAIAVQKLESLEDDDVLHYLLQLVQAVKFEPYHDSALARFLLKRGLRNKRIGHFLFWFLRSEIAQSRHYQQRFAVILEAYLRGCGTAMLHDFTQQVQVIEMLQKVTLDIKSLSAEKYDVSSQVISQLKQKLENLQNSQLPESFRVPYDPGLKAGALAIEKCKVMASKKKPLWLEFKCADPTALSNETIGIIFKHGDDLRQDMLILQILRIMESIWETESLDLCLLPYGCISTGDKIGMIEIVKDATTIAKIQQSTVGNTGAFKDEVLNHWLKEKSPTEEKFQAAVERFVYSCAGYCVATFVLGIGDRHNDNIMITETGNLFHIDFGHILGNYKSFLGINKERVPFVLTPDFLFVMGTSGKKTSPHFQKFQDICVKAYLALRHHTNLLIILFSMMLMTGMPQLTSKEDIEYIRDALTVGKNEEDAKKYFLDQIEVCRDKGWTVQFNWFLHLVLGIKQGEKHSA

For the compound `COC(=O)[C@@]12OC[C@]34[C@H]([C@@H](O)[C@@H]1O)[C@@]1(C)CC(=O)C(OC(=O)C[C@H](C)NC(=O)C[C@H](C)N)=C(C)[C@@H]1C[C@H]3OC(=O)[C@H](OC(=O)C=C(C)C)[C@@H]24`, the inhibition entry in test [1], in test [2], in test [3], in test [4], in test [5] and in test [6] was “Active” in each case.

Take `COC(=O)[C@@]12OC[C@]34[C@H]([C@@H](O)[C@@H]1O)[C@@]1(C)CC(=O)C(OC(=O)CNC(=O)CN)=C(C)[C@@H]1C[C@H]3OC(=O)[C@H](OC(=O)C=C(C)C)[C@@H]24`: the inhibition result in test [1], in test [2], in test [3], in test [4], in test [5] and in test [6] was “Active” each time.

As for `COC(=O)[C@@]12OC[C@]34[C@H]([C@@H](O)[C@@H]1O)[C@@]1(C)CC(=O)C(OC(=O)C[C@H](C)NC(C)=O)=C(C)[C@@H]1C[C@H]3OC(=O)[C@H](OC(=O)C=C(C)C)[C@@H]24`, the inhibition entry in test [1], in test [2], in test [3], in test [4], in test [5] and in test [6] was “Active” throughout.

Regarding `COC(=O)[C@@]12OC[C@]34[C@H]([C@@H](O)[C@@H]1O)[C@@]1(C)CC(=O)C(OC(=O)C[C@@H](C)N)=C(C)[C@@H]1C[C@H]3OC(=O)[C@H](OC(=O)C=C(C)C)[C@@H]24`, the inhibition result in test [1], in test [2], in test [3], in test [4], in test [5] and in test [6] was “Active” each time.

`COC(=O)[C@@]12OC[C@]34[C@H]([C@@H](O)[C@@H]1O)[C@@]1(C)CC(=O)C(OC(=O)[C@H](C)NC(=O)[C@H](C)N)=C(C)[C@@H]1C[C@H]3OC(=O)[C@H](OC(=O)C=C(C)C)[C@@H]24`: the inhibition result in test [1], in test [2], in test [3], in test [4], in test [5] and in test [6] was “inactive” each time.

With `COC(=O)[C@@]12OC[C@]34[C@H]([C@@H](O)[C@@H]1O)[C@@]1(C)CC(=O)C(OCC(=O)NC(Cc5ccccc5)C(=O)O)=C(C)[C@@H]1C[C@H]3OC(=O)[C@H](OC(=O)C=C(C)C)[C@@H]24` (some centres undefined), the inhibition result in test [3] is “inactive”.

Turning to `COC(=O)[C@@]12OC[C@]34[C@H]([C@@H](O)[C@@H]1O)[C@@]1(C)CC(=O)C(OCC(=O)C5CC5)=C(C)[C@@H]1C[C@H]3OC(=O)[C@H](OC(=O)C=C(C)C)[C@@H]24`, the inhibition entry in test [3] is “inactive”.

`COC(=O)[C@@]12OC[C@]34[C@H]([C@@H](O)[C@@H]1O)[C@@]1(C)CC(=O)C(OC(=O)[C@H](CC(C)C)NC(=O)OC(C)(C)C)=C(C)[C@@H]1C[C@H]3OC(=O)[C@H](OC(=O)C=C(C)C)[C@@H]24`: the inhibition result in test [3] is “inactive”.

With `COC(=O)[C@@]12OC[C@]34[C@H]([C@@H](O)[C@@H]1O)[C@@]1(C)CC(=O)C(OC(=O)C[C@@H](N)C(C)C)=C(C)[C@@H]1C[C@H]3OC(=O)[C@H](OC(=O)C=C(C)C)[C@@H]24`, the inhibition result in test [3] is “inactive”.

Regarding `COC(=O)[C@@]12OC[C@]34[C@H]([C@@H](O)[C@@H]1O)[C@@]1(C)CC(=O)C(OC(=O)CNC(=O)CNC(=O)CN)=C(C)[C@@H]1C[C@H]3OC(=O)[C@H](OC(=O)C=C(C)C)[C@@H]24`, the inhibition result in test [1], in test [2], in test [3], in test [4], in test [5] and in test [6] was “Active” in each case.

As for `COC(=O)[C@@]12OC[C@]34[C@H]([C@@H](O)[C@@H]1O)[C@@]1(C)CC(=O)C(OC(=O)[C@H](C)NC(=O)OC(C)(C)C)=C(C)[C@@H]1C[C@H]3OC(=O)[C@H](OC(=O)C=C(C)C)[C@@H]24`, the inhibition entry in test [3] was “Active”.

For the compound `COC(=O)[C@@]12OC[C@]34[C@H]([C@@H](O)[C@@H]1O)[C@@]1(C)CC(=O)C(OC(=O)[C@@H](NC(=O)OC(C)(C)C)C(C)C)=C(C)[C@@H]1C[C@H]3OC(=O)[C@H](OC(=O)C=C(C)C)[C@@H]24`, the inhibition result in test [3] is “inactive”.

Regarding `COC(=O)[C@@]12OC[C@]34[C@H]([C@@H](O)[C@@H]1O)[C@@]1(C)CC(=O)C(OCC(=O)NCCN)=C(C)[C@@H]1C[C@H]3OC(=O)[C@H](OC(=O)C=C(C)C)[C@@H]24`, the inhibition result in test [1], in test [2], in test [3], in test [4], in test [5] and in test [6] was “Active” throughout.

`COC(=O)[C@@]12OC[C@]34[C@H]([C@@H](O)[C@@H]1O)[C@@]1(C)CC(=O)C(OC(=O)[C@@H](N)C(C)C)=C(C)[C@@H]1C[C@H]3OC(=O)[C@H](OC(=O)C=C(C)C)[C@@H]24`: the inhibition entry in test [3] is “Active”.

For `COC(=O)[C@@]12OC[C@]34[C@H]([C@@H](O)[C@@H]1O)[C@@]1(C)CC(=O)C(OC(=O)[C@H]5CCCN5)=C(C)[C@@H]1C[C@H]3OC(=O)[C@H](OC(=O)C=C(C)C)[C@@H]24`, the inhibition result in test [1], in test [2], in test [3], in test [4], in test [5] and in test [6] was “Active” throughout.

In the case of `CC[C@H](C)[C@H](NC(=O)OC(C)(C)C)C(=O)OC1=C(C)[C@@H]2C[C@H]3OC(=O)[C@H](OC(=O)C=C(C)C)[C@H]4[C@]5(C(=O)OC)OC[C@]34[C@H]([C@@H](O)[C@@H]5O)[C@@]2(C)CC1=O`, the inhibition result in test [3] was “inactive”.

In the case of `COC(=O)[C@@]12OC[C@]34[C@H]([C@@H](O)[C@@H]1O)[C@@]1(C)CC(=O)C(OC(=O)[C@@H](C)N)=C(C)[C@@H]1C[C@H]3OC(=O)[C@H](OC(=O)C=C(C)C)[C@@H]24`, the inhibition result in test [1], in test [2], in test [3], in test [4], in test [5] and in test [6] was “Active” throughout.

For the compound `COC(=O)[C@@]12OC[C@]34[C@H]([C@@H](O)[C@@H]1O)[C@@]1(C)CC(=O)C(OC(=O)CN)=C(C)[C@@H]1C[C@H]3OC(=O)[C@H](OC(=O)C=C(C)C)[C@@H]24`, in test [3], the inhibition result is “Active”.

Consider `COC(=O)[C@@]12OC[C@]34[C@H]([C@@H](O)[C@@H]1O)[C@@]1(C)CC(=O)C(OC(=O)[C@@H]5CC(F)(F)CN5)=C(C)[C@@H]1C[C@H]3OC(=O)[C@H](OC(=O)C=C(C)C)[C@@H]24`, for which the inhibition entry in test [1], in test [2], in test [3], in test [4], in test [5] and in test [6] was “Active” each time.
